Data from US20030148462A1, “Dual inhibition of sister chromatid separation at metaphase” (President and fellows of Harvard College, priority 2001, published 2003).

Legend:
[1] = test system: sister chromatid separation and segregation in Xenopus egg extracts; assay: Anaphase and mitotic exit in CSF-arrested Xenopus egg extracts with sperm nuclei; conditions: added 10 minutes before Ca2+
separase Ser1126 = target: T1, separase Ser1126 (Homo sapiens, UniProt Q14674); assay: Ser1126-specific in vitro kinase assays with LC-MS/MS; format: biochemical; conditions: securin/separase from unsynchronized 293T cells, 1 mM ATP
T1 construct: Full-length human separase was PCR-amplified from a human fetal thymus cDNA library; made in house; host or cells: 293T cells (cotransfected, unsynchronized)
T1 sequence (Q14674 whole entry): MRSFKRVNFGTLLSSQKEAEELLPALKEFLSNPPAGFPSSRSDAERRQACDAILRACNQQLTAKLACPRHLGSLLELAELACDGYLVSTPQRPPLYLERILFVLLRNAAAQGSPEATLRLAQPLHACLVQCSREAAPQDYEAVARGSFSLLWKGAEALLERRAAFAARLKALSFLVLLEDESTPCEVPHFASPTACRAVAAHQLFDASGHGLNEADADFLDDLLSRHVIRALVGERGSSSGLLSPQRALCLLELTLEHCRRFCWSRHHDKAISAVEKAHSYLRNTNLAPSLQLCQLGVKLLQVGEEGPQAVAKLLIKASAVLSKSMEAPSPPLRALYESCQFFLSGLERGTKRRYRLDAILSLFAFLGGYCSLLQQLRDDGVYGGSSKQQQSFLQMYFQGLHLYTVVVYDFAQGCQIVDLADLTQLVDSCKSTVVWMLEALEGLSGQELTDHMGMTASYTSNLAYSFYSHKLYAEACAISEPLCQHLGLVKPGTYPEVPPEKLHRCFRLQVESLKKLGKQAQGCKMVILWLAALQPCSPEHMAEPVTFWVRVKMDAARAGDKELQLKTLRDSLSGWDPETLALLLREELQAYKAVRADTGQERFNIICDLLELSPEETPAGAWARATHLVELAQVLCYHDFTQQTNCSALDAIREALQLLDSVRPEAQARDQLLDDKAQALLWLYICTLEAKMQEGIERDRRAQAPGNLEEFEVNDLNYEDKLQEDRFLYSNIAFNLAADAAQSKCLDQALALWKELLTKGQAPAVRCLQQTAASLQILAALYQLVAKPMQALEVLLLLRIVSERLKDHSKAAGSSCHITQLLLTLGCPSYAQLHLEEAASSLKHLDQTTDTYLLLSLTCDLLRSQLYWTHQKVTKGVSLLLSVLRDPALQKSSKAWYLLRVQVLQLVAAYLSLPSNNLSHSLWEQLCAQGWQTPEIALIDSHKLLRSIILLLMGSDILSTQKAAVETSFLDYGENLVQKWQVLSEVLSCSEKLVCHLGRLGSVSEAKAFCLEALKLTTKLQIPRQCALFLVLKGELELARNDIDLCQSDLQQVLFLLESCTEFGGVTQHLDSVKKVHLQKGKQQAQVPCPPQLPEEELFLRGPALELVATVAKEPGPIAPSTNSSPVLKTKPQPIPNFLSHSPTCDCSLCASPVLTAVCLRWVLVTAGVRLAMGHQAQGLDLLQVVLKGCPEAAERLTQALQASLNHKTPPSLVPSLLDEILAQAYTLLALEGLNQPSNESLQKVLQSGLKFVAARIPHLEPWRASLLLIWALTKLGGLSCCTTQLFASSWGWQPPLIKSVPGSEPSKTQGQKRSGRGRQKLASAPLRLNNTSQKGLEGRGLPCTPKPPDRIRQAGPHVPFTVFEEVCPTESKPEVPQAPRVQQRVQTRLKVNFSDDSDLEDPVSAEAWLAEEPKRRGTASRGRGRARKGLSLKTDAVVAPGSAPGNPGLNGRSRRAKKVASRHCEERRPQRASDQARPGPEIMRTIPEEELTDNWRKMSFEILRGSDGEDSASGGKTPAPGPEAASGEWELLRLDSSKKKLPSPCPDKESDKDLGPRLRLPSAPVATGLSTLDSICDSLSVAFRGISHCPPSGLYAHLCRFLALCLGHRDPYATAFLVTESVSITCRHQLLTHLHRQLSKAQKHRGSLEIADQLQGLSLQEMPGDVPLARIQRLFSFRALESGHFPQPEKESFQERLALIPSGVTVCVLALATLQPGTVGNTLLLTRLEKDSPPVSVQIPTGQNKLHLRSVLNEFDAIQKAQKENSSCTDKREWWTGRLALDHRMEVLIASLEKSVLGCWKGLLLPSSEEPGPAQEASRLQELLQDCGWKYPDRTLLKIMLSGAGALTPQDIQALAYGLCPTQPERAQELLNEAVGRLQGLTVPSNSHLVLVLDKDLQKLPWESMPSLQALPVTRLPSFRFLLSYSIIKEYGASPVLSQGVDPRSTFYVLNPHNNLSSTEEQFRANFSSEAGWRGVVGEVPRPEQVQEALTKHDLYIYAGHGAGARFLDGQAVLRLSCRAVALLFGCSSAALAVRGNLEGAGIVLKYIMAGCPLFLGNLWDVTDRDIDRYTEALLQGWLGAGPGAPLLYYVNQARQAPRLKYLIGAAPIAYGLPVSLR
T1 sequence (O95997 whole entry partner): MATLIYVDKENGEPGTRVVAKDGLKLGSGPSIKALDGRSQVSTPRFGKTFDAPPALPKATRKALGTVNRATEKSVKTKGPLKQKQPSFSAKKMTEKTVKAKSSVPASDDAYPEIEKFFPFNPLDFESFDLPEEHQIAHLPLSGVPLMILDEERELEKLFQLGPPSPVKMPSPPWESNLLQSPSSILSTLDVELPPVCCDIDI
Text: (A) depicts FACS and Western analyses of synchronized HeLaS3 cells undergoing mitosis. (B) depicts quantification of cell cycle distribution and phosphorylation status of separase at Ser1126 for the samples shown in (A). (C) depicts a nano-scale microcapillary LC-MS/MS analysis of native separase phosphorylation state. Shown are the selected reaction, extracted-ion chromatograms corresponding to the unphosphorylated (upper trace) and phosphorylated (bottom trace) Glu1115-Lys1130 native tryptic peptide (blue and green) and heavy internal standard (brown and red). Inset: Averaged selected reaction m/z window corresponding to the y10-ion fragment of light and heavy peptides. (D) depicts […] in vitro kinase assays. Shown is the phosphorylation status of Ser1126 in percent as determined by incubation of affinity-purified securin/separase with various pure kinases in the presence of ATP (1 mM) followed by LC-MS/MS analysis. […] Top panel: Mock treatment.
For kinase assays, the securin/separase complex was isolated from unsynchronized, transfected cells and eluted with TEV protease without prior incubation in Xenopus extracts. […] Reactions with polo and auroraA (a gift from E. A. Nigg) were carried out as described (Bischoff et al. (1998) EMBO J 17:3052; Descombes et al. (1998) EMBO J 17:1328). All kinase assays were done in the presence of 1 mM ATP.
As a substrate, overexpressed securin/separase purified from transfected, unsynchronized 293T cells was used.
Coomassie stained securin and separase bands were digested in-gel (Shevchenko et al. (1996) Anal. Chem. 68:850). Extracted peptides were separated by nano-scale microcapillary high performance liquid chromatography (HPLC) as described (Gygi et al. (1999) Mol. Cell Biol. 19:1720). Eluting peptides were ionized by electrospray ionization and analyzed by an LCQ-DECA ion trap mass spectrometer (ThermoFinnigan). Peptide ions reaching a certain threshold were automatically selected for sequence analysis by tandem mass spectrometry. Peptide sequence was determined by data-searching against the non redundant human protein database using the Sequest algorithm (Eng et al. (1994) J. Am. Soc. Mass Spectrom. 5:1579).

cohesin^hSCC1 = assay: In vitro separase activity assay (self-cleavage and cohesin hSCC1 cleavage) after low- or high-Δ90 extract; format: biochemical, human; conditions: for Separase self-cleavage and cohesin hSCC1 cleavage after low- versus high-Δ90 extract: low or high CDC2 activity extract
Text: To address whether high CDC2 activity blocked the activity of separase, an in vitro separase activity assay was developed. Plasmids coding for human securin and tagged human separase were transfected into 293T cells as follows.
Human cohesin^hSCC1 was isolated from the a human fetal thymus cDNA library using the following primers: 5′-[…]-3′ (SEQ ID NO:8) and 5′-[…]-3′ (SEQ ID NO:9). Both separase and securin were subcloned into the multi-purpose expression vector pCS2 (various versions). The resulting plasmids were utilized for transfection into 293T cells and for in vitro expression in TNT™ reticulocyte lysate (Promega). For immunoprecipitation of separase, two types of N-terminal tags were fused to the amino terminus of separase, three HA tags (FIG. 2A) or two IgG binding domains of protein A followed by four TEV-protease cleavage sequences (ZZ-TEV4-tag; FIGS. 2B, 4B, 5, 6B to E, and 7). Both versions of separase gave essentially the same results. Site directed mutagenesis was performed using either the QuickChange kit (Stratagene) or the GeneEditor system (Promega). All mutations were confirmed by DNA sequencing of manipulated regions.
To obtain securin/separase complexes, 293T cells were cotransfected with separase and securin expression plasmids using a calcium phosphate based method and subsequently synchronized as described (Fang et al. (1998) Mol. Cell 2:163). Two days after transfection, the nocodazole-arrested cells were lysed in 20 mM Tris/HCl pH 7.7, 100 mM NaCl, 1 mM NaF, 20 mM β-glycerophosphate, 5 mM MgCl2, 0.1% Triton X100, 1 μM microcystin-LR. After ultra-centrifugation at 100,000 g, the supernatant was mixed with anti-HA agarose (3F10, Roche) or IgG-sepharose (Amersham), depending on the tag of separase. For a 10 cm dish of confluent, transfected cells (corresponding to roughly 100 μl cell pellet), 20 μl of beads were used. After rotation overnight at 4° C. the beads were washed twice with CSF-XB (Murray (1991) Methods Cell Biol. 36:581) and then incubated with various Xenopus egg extracts. To prepare low- or high-Δ90 extracts, CSF extracts were supplemented with various concentrations of Δ90. Fifteen minutes thereafter, Ca^2+ was added (0.6 mM) and the extracts were further incubated for 15 minutes before adding them to the securin/separase beads. After 1 hour, the beads were washed twice with CSF-XB, once with 30 mM Hepes/KOH pH 7.7, 30% glycerol, 25 mM NaF, 25 mM KCl, 5 mM MgCl2, 1.5 mM ATP, 1 mM EGTA, and eluted with HA peptide (1 mg/ml) or TEV-protease (2 mg/ml) in 20 to 50 μl. Two μl of separase were combined with 2 μl of in vitro translated ^35S-cohesin^hSCC1 and incubated for 1 hour at 37° C. Alternatively, 2 μl of isolated metaphase chromosomes (8.7 μg DNA per μl) were used as a substrate.
Each mutant was incubated in either low- (odd numbered lanes) or high-Δ90 extract (even numbered lanes) before analyzing separase self-cleavage by immuno-blot (top panels) and cohesin^hSCC1 cleavage by autoradiography (middle and lower panels).

separase = assay: Re-inhibition of pre-activated separase by recombinant securin (cohesin hSCC1 cleavage); format: biochemical, human; conditions: equal amounts of separase
Description: FIGS. 7A-7C depict the independent inhibition of separase activity by phosphorylation of separase and by binding of securin. (A) depicts a Western blot (upper panel) and cohesin^hSCC1 cleavage activity using isolated chromosomes as substrate (lower panel). Lane 2: Consecutive treatment of separase with high-Δ90 extract twice. (B) depicts separase that had been pre-activated in low-Δ90 extract that was eluted and incubated with recombinant securin (lanes 2 and 3) or reference buffer (lane 1) for one hour on ice. Subsequently, its cleavage activity towards in vitro translated ^35S-cohesin^hSCC1 was tested (upper panel). The separase concentration in each reaction was 4 nM, as estimated by Coomassie staining. To compare wild type separase with PM-2/4 mutant separase in its ability to bind securin the same experiment was repeated with PM-2/4 (lower panel). Roughly equal separase concentrations in both cases were assured by comparative immunoblotting (see FIG. 4B, lanes 15 and 17). (C) depicts a model for the dual inhibition of separase in metaphase and its activation at anaphase onset. PPase denotes an unknown protein phosphatase that is proposed to act on phosphorylated separase.
To determine whether securin can inhibit separase independent of the phosphorylation state of separase, and whether separase that has already been activated and has therefore cleaved itself be re-inhibited by either of the two inhibitory mechanisms, active separase was generated by treating a securin/separase complex with a low-Δ90 extract (L; FIG. 7) to degrade securin and dephosphorylate separase. […] Active separase on beads was then incubated with either recombinant securin or a high-Δ90 extract and assayed for its ability to cleave cohesin^hSCC1. […]

[2] = test system: human metaphase chromosomes; assay: Sister chromatid separation of human metaphase chromosomes in Xenopus extracts; conditions: for Separation of sister chromatids: high concentrations of Δ90 (400 nm), human chromosomes in Xenopus extract
Description: CSF extracts were prepared as described (Murray (1991) Methods Cell Biol. 36:581). For sister chromatid separation assays two sources of chromosomes were used, Xenopus sperm nuclei and isolated human metaphase chromosomes. Xenopus sperm nuclei were prepared as described by Philpott et al. ((1991) Cell 65:569). When they were used, the protocol developed by Murray and colleagues was followed (Holloway et al. (1993) Cell 73:1393) with the exception that Δ90 was usually added later, about 50 minutes after CSF. Re-isolation of Xenopus chromosomes was done according to Funabiki and Murray ((2000) Cell 102:411). When human chromosomes were used, the KCl concentration was lowered to 70 mM. Δ90 and isolated securin/separase (0.1 volumes) were added 20 minutes after addition of human chromosomes. After additional 20 minutes at 20° C., Ca^2+ (0.6 mM) was added. Chromosomes were re-isolated from extracts 50 minutes thereafter. Analysis by immunofluorescence microscopy was performed as described (Wood et al. (1997) Cell 91:357). The percentage of separated chromosomes was calculated according to the following equation: % separation=(number of single chromatids/2)/[(number of single chromatids/2)+number of unseparated chromosomes].
It was next determined whether the PM-2 mutant would override the inhibition not only of cohesin cleavage but also of sister chromatid separation in high-Δ90 extracts. Since the biochemical experiments utilized human separase, the existing assay was modified to examine the separation of human metaphase chromosomes in Xenopus extracts. […] In the presence of wild type separase (supplied as purified securin/separase complexes) and high concentrations of Δ90 (400 nm), only 2.7% of the chromosomes separated (FIG. 5A, row 2). […] In contrast, PM-2 (Ser 1126) led to maximal separation of sister chromatids (68%) under the same conditions (FIG. 5A, row 5). Similar results were obtained with PM-2/4 and PM-2^Asp; they caused 68% and 66% separation, respectively (FIG. 5A, rows 4 and 7). A Western blot for separase was performed to assure that similar amounts of the various separases had been used in the experiment (FIG. 5B).

recombinant securin = test system: T2, recombinant securin
T2 sequence (O95997 2-202, species assumed, looked up): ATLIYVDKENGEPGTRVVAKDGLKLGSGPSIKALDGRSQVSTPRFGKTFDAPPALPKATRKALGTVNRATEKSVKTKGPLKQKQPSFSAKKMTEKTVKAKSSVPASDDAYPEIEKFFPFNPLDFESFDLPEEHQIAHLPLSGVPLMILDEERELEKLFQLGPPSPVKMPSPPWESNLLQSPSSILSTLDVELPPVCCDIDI

Phosphorylation of Ser1126 by kinase (separase Ser1126) | Separase self-cleavage and cohesin hSCC1 cleavage after low- versus high-Δ90 extract (cohesin^hSCC1) | Compound | Separation of sister chromatids [2] [%] | other results
 |  | CC[C@H](CO)Nc1nc(NCc2ccccc2)c2ncn(C(C)C)c2n1 [roscovitine] |  | Rescue of anaphase (sister separation and segregation) blocked in high-Δ90 extract [1]: rescued both events with high efficiency
not at all |  | CaMKII: calmodulin-dependent kinase II, from New England Biolabs |  | 
efficiently phosphorylated |  | MAPK (ERK2): pure kinase from New England Biolabs |  | 
 | no longer inhibited | PM-2/4: separase phospho-mutant, sites 2 (Ser1126) and 4 (Thr1346) changed to alanine | 68 | Separase activity relative to wild type after low-Δ90 extract (cohesin^hSCC1; low-Δ90 extract): higher than that of wild type separase; Inhibition of separase by securin, wild type versus mutant (separase): inhibited at the same concentration of securin; Maximal degree of sister chromatid separation ([2]; low-Δ90 extract plus saturating level of PM-2/4, data not shown): about 70%
 | still largely resistant to inhibition | PM-2: single site separase phospho-mutant, site 2 (Ser1126) changed to alanine | 68 | Separase activity relative to wild type after low-Δ90 extract (cohesin^hSCC1; low-Δ90 extract): higher than that of wild type separase
 | still largely resistant to inactivation | PM-2^Asp: separase with mutation of Ser1126 to aspartate | 66 | 
not at all |  | auroraA: pure kinase, a gift from E. A. Nigg |  | 
 |  | catalytically inactive separase: mutant separase in which the catalytic cysteine residue was replaced by a serine | 0.4 | Separase self-cleavage (cohesin^hSCC1; low-Δ90 extract): not cleaved
 |  | human separase phospho-mutant PM-2/4 (Ser1126 and Thr1346 changed to alanine), with N-terminal ZZ-TEV4-tag |  | cohesin^hSCC1 cleavage by pre-activated separase (recombinant securin): both were inhibited at the same concentration of securin
not at all |  | polo: pure kinase, a gift from E. A. Nigg |  | 

Compound | Phosphorylation of Ser1126 by kinase (separase Ser1126) | Separase self-cleavage and cohesin hSCC1 cleavage after low- versus high-Δ90 extract (cohesin^hSCC1) | Separation of sister chromatids [2] [%] | other results
PM-4: single site separase phospho-mutant, site 4 (Thr1346) changed to alanine |  | inactivated by high CDC2 activity albeit less so than wild type separase | 38 | Separase activity relative to wild type after low-Δ90 extract (cohesin^hSCC1; low-Δ90 extract): higher than that of wild type separase
wild type separase: human separase protein (SEQ ID NO:3), tagged, purified as securin/separase complex from 293T cells |  | efficiently at low but not at high CDC2 activity | 2.7 | Inhibition of separase by securin, wild type versus mutant (separase): inhibited at the same concentration of securin
